Legend:
HCT-15 = assay: NCI60 5-dose screen, HCT-15; assay type: cell-based; settings: Homo sapiens, colon cancer, Fig 1D, read-out: Log10 GI50 (HCT-15) (converted)
Procedure: (§1) The screening methodology used in the NCI60 Cell 5-Doses screen is described in detail at https://dtp.cancer.gov/discovery_development/nci-60/methodology.htm. Briefly, cells are seeded in 96 well plates at an appropriate density and incubated for 1 day. After 1 day, some of the plates are processed to determine a time zero density. To the remaining plates, compounds are added over a 5-log M concentration range (1 log dilutions from 10^-4M to 10^-8M). Plates are incubated for two additional days, then fixed and stained with sulforhodamine B. Growth inhibition is calculated relative to cells without drug treatment and the time zero control. The GI50 is the concentration of a compound that causes 50% growth inhibition, relative to the no drug control.

HS 578T = assay: NCI60 5-dose screen, HS 578T; assay type: cell-based; settings: Homo sapiens, breast cancer, Fig 1D, read-out: Log10 GI50 (HS 578T) (converted)
Procedure: as §1

DU-145 = assay: NCI60 5-dose screen, DU-145; assay type: cell-based; settings: Homo sapiens, prostate cancer, Fig 1D, read-out: Log10 GI50 (DU-145) (converted)
Procedure: as §1

PC-3 = assay: NCI60 5-dose screen, PC-3; assay type: cell-based; settings: Homo sapiens, prostate cancer, Fig 1D, read-out: Log10 GI50 (PC-3) (converted)
Procedure: as §1

MCF7 = assay: NCI60 5-dose screen, MCF7; assay type: cell-based; settings: Homo sapiens, breast cancer, Fig 1D, read-out: Log10 GI50 (MCF7) (converted)
Procedure: as §1

K-562 = assay: NCI60 5-dose screen, K-562; assay type: cell-based; settings: Homo sapiens, K562; leukemia; Fig 1D; read-out: Log10 GI50 (K-562) (converted)
Procedure: as §1

Jurkat cells [1] = assay: Apoptosis induction, annexin V/PI staining, Jurkat; assay type: cell-based, human; settings: 24 hours, dose-dependent
HL-60(TB) = assay: NCI60 5-dose screen, HL-60(TB); assay type: cell-based; settings: Homo sapiens, leukemia, Fig 1D, read-out: Log10 GI50 (HL-60(TB)) (converted)
Procedure: as §1

SW-620 = assay: NCI60 5-dose screen, SW-620; assay type: cell-based; settings: Homo sapiens, colon cancer, Fig 1D, read-out: Log10 GI50 (SW-620) (converted)
Procedure: as §1

NCI-H460 = assay: NCI60 5-dose screen, NCI-H460; assay type: cell-based; settings: Homo sapiens, non-small cell lung cancer, Fig 1D, read-out: Log10 GI50 (NCI-H460) (converted)
Procedure: as §1

MRC-5 cells = assay: 3-day MTS cell viability assay, MRC-5; assay type: cell-based; settings: Homo sapiens, MRC5, 72 hours, normal lung fibroblast cells, Fig 1C
Procedure: All cancer cell lines (HT-29: colorectal adenocarcinoma, HCT-116: colorectal carcinoma, A549: lung epithelial carcinoma, PC3: prostate adenocarcinoma, Jurkat: acute T-cell leukemia, BC-1: primary effusion lymphoma) and the normal human embryonal lung fibroblast cell line MRC-5 were acquired from the American Type Culture Collection (ATCC). All cell lines were cultured as recommended by the suppliers. Culture media were purchased from Gibco (Thermo Fisher Scientific) and supplemented with 10 to 20% fetal bovine serum (HyClone, GE Healthcare Life Sciences) and 20–25 μg/mL gentamicin (Gibco, Thermo Fisher Scientific). […]
(§2) Cell viability in cancer cell lines treated with compound was measured in a 3-day MTS cell proliferation assay using the CellTiter 96 AQueous Non-Radioactive Cell Proliferation Assay reagent (Promega) according to the manufacturer’s instructions. Absorbance was read at 490 nm on a SaFire II microplate reader (Tecan). CC50 values were calculated by fitting the obtained MTS cell viability data in GraphPad Prism using a 4-parameter log–based fit for inhibitors. Apoptosis induction and cell death upon compound treatment in PBMC was measured using the Alexa Fluor 488 Annexin V/Dead Cell Apoptosis Kit (Thermo Fisher Scientific), with readout on a FACSCanto II flow cytometer (BD Biosciences). […] The compounds were evaluated in duplo in two independent experiments.

OVCAR-3 = assay: NCI60 5-dose screen, OVCAR-3; assay type: cell-based; settings: Homo sapiens, ovarian cancer, Fig 1D, read-out: Log10 GI50 (OVCAR-3) (converted)
Procedure: as §1

HT29 = assay: NCI60 5-dose screen, HT29; assay type: cell-based; settings: Homo sapiens, HT-29; colon cancer; Fig 1D; read-out: Log10 GI50 (HT29) (converted)
Procedure: as §1

COLO 205 = assay: NCI60 5-dose screen, COLO 205; assay type: cell-based; settings: Homo sapiens, colon cancer, Fig 1D, read-out: Log10 GI50 (COLO 205) (converted)
Procedure: as §1

Jurkat cells [2] = assay: Cell cycle analysis (DAPI, high content imaging), Jurkat; assay type: cell-based, human; settings: 24 hours
Procedure: as §2, with “Biosciences). For cell cycle analysis, Jurkat cells were seeded at 400,000 cells per well in 12-well tissue culture plates and treated with the test compounds at the indicated concentrations for 24 h. Cells were then harvested by centrifugation at 400 x g, washed in PBS and transferred to an 8-well μ-Slide (Ibidi) that had been pretreated with 0.1% (w/v) poly-L-lysine (Sigma). Cells were allowed to adhere to the slides, fixed with 4% PFA in PBS for 10 minutes, washed and stained with DAPI.” for “Biosciences).”

SR = assay: NCI60 5-dose screen, SR; assay type: cell-based; settings: Homo sapiens, leukemia, Fig 1D, read-out: Log10 GI50 (SR) (converted)
Procedure: as §1

MDA-MB-468 = assay: NCI60 5-dose screen, MDA-MB-468; assay type: cell-based; settings: Homo sapiens, breast cancer, Fig 1D, read-out: Log10 GI50 (MDA-MB-468) (converted)
Procedure: as §1

CCRF-CEM = assay: NCI60 5-dose screen, CCRF-CEM; assay type: cell-based; settings: Homo sapiens, leukemia, Fig 1D, read-out: Log10 GI50 (CCRF-CEM) (converted)
Procedure: as §1

LOX IMVI = assay: NCI60 5-dose screen, LOX IMVI; assay type: cell-based; settings: Homo sapiens, melanoma, Fig 1D, read-out: Log10 GI50 (LOX IMVI) (converted)
Procedure: as §1

CAKI-1 = assay: NCI60 5-dose screen, CAKI-1; assay type: cell-based; settings: Homo sapiens, renal cancer, Fig 1D, read-out: Log10 GI50 (CAKI-1) (converted)
Procedure: as §1

M14 = assay: NCI60 5-dose screen, M14; assay type: cell-based; settings: Homo sapiens, melanoma, Fig 1D, read-out: Log10 GI50 (M14) (converted)
Procedure: as §1

SMILES | GI50 (HCT-15) | GI50 (HS 578T) | GI50 (DU-145) | GI50 (PC-3) | GI50 (MCF7) | GI50 (K-562) | apoptosis induction (Jurkat cells [1]) | GI50 (HL-60(TB)) | GI50 (SW-620) | GI50 (NCI-H460) | IC50 (MRC-5 cells) | GI50 (OVCAR-3) | GI50 (HT29) | GI50 (COLO 205) | effect on cell cycle progression (Jurkat cells [2]) | GI50 (SR) | GI50 (MDA-MB-468) | GI50 (CCRF-CEM) | GI50 (LOX IMVI) | GI50 (CAKI-1) | also measured
Cc1cc(C)cc(Nc2ccc([N+](=O)[O-])c(NCCN3CCOCC3)n2)c1 [Compound 4AZA2891, 6-(3,5-dimethylanilino)-2-(2-morpholinoethylamino)-3-nitropyridine] | < 0.01 µM | 0.0166 µM | 0.0417 µM | 0.0105 µM | < 0.01 µM | 0.0115 µM | induce apoptosis | 0.0257 µM | 0.0148 µM | 0.0174 µM | 29.6 µM | < 0.01 µM | 0.0186 µM | 0.0214 µM | induce G2 cell cycle arrest | 0.0174 µM | < 0.01 µM | 0.0331 µM | 0.0115 µM | < 0.01 µM | GI50 (M14): 0.012 µM
Cc1ccnc(Nc2ccc([N+](=O)[O-])c(NCCN3CCOCC3)n2)c1 [Compound 4AZA2996, N^6-(4-methylpyridin-2-yl)-N^2-(2-morpholinoethyl)-3-nitropyridine-2,6-diamine] | < 0.01 µM | < 0.01 µM | 0.0257 µM | < 0.01 µM | < 0.01 µM | < 0.01 µM | induce apoptosis | < 0.01 µM | < 0.01 µM | < 0.01 µM | 23.3 µM | < 0.01 µM | < 0.01 µM | < 0.01 µM | induce G2 cell cycle arrest | < 0.01 µM | 0.0275 µM | 0.0263 µM | < 0.01 µM | < 0.01 µM | GI50 (M14): < 0.01 µM

Source: article PMC11542830, “3-nitropyridine analogues as novel microtubule-targeting agents” (PLOS ONE, 2024)
